Measured values from the NIST ThermoML archive (doi:10.1021/je5010164).
± gives the expanded uncertainty stated by the source.

Settings: Liquid, Frequency=8 MHz, Pulse-echo method

C1CCCC1 [cyclopentane]
Settings | speed of sound [m/s]
258.15 K, 100 kPa | 1419.1 ± 3.1
258.15 K, 5072 kPa | 1446.1 ± 3.2
258.15 K, 10244 kPa | 1473 ± 3.2
258.15 K, 15262 kPa | 1498.1 ± 3.3
258.15 K, 20158 kPa | 1521.7 ± 3.3
258.15 K, 25083 kPa | 1544.5 ± 3.4
258.15 K, 30141 kPa | 1567.1 ± 3.4
273.15 K, 100 kPa | 1336.6 ± 3
273.15 K, 5169 kPa | 1366.7 ± 3
273.15 K, 10059 kPa | 1394.3 ± 3.1
273.15 K, 15219 kPa | 1422 ± 3.2
273.15 K, 20251 kPa | 1447.9 ± 3.2
273.15 K, 25184 kPa | 1472.3 ± 3.2
273.15 K, 30227 kPa | 1496.3 ± 3.3
293.15 K, 105 kPa | 1230.1 ± 2.8
293.15 K, 5059 kPa | 1263 ± 2.9
293.15 K, 10088 kPa | 1294.4 ± 2.9
293.15 K, 15198 kPa | 1324.6 ± 3
293.15 K, 20121 kPa | 1352.3 ± 3
293.15 K, 25192 kPa | 1379.6 ± 3.1
293.15 K, 30134 kPa | 1405 ± 3.1
313.15 K, 107 kPa | 1126.8 ± 2.6
313.15 K, 5113 kPa | 1164 ± 2.7
313.15 K, 10058 kPa | 1198.3 ± 2.7
313.15 K, 15132 kPa | 1231.3 ± 2.8
313.15 K, 20097 kPa | 1261.8 ± 2.9
313.15 K, 25098 kPa | 1291 ± 2.9
313.15 K, 30162 kPa | 1319.2 ± 3
333.15 K, 149 kPa | 1026.6 ± 2.4
333.15 K, 5035 kPa | 1067.6 ± 2.5
333.15 K, 10139 kPa | 1107 ± 2.6
333.15 K, 15108 kPa | 1142.5 ± 2.6
333.15 K, 20130 kPa | 1176.2 ± 2.7
333.15 K, 25152 kPa | 1208 ± 2.8
333.15 K, 30170 kPa | 1238 ± 2.8
353.15 K, 261 kPa | 929.4 ± 2.3
353.15 K, 5019 kPa | 974.63 ± 2.3
353.15 K, 10069 kPa | 1018.2 ± 2.4
353.15 K, 15107 kPa | 1058.1 ± 2.5
353.15 K, 20063 kPa | 1094.4 ± 2.6
353.15 K, 25009 kPa | 1128.3 ± 2.6
353.15 K, 30157 kPa | 1161.5 ± 2.7
